{"source": "paper PMC3648619", "about": "(Journal of inorganic biochemistry, 2013)"}
{"target": "T1, 20S proteasome, β5 subunit (chymotrypsin-like activity) (Homo sapiens, UniProt P28074)", "T1 sequence (P28074 60-263)": "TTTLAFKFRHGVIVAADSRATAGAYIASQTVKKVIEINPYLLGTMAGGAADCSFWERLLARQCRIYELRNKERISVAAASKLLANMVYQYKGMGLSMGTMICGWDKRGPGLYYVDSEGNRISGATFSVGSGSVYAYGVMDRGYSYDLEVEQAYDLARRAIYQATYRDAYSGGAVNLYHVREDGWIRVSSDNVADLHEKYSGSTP", "type": "biochemical", "units": {"IC50": "nM"}}
{"substance": "[Cd2(C11H10O2N)4(H2O)2]·2H2O", "IC50": 3000}
{"substance": "[Cd(C7H4N2O2)(C8H6O2)2]·2H2O [Cd3]", "IC50": 3300}
{"substance": "[Cd2(C12H12O2N)4(H2O)2]·2H2O [Cd1]", "IC50": 2600}
